In patent US4391824A, “Ureylenebis (hydroxy naphthalenesulfonic acids)” (American Cyanamid Company, priority 1981, dated 1983):
Where “and” joins values, the source holds several entries; their conditions need not be identical. Equal values may be shown once. Where a name gives a salt, the structure may show the parent alone. One block for each molecule: values may come before it.

Columns and labels:
[1] = molecular target: T1, human skin fibroblast collagenase (Homo sapiens, UniProt P03956); assay: Collagenase Assay, Test Code 006 (degradation of 14C-labeled native collagen fibrils); type: biochemical; conditions: 16 hours at 37° C., based on 0% value for enzyme control; for % Inhibition of Collagenase / inhibition at 30 µg/mL: test concentration 30 μg/ml
T1 construct: endogenous in cells; host or cells: human skin fibroblasts (from the enzyme's name; preparation not described)
T1 sequence (P03956 100-469): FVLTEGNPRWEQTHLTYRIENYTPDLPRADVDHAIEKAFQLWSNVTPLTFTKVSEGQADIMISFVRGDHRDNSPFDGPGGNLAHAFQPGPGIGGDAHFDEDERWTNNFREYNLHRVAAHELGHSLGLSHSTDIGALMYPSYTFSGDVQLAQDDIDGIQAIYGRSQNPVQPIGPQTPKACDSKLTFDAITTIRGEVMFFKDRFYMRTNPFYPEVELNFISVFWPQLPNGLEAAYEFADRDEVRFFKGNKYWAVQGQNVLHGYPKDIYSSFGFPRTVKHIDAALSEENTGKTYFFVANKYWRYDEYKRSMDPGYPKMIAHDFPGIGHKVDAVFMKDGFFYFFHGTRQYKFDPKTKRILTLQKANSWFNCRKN
Procedure: Collagenase assays were performed by a modification of the method of Harper, et. al., Biochem. 10: 3035 (1971). In a typical assay (total volume of 0.45 ml), 100 μl of the activated enzyme was added to the 14 C-labeled collagen fibrils (250 μl) followed by 100 μl of 50 mM cacodylate, pH 7.4, containing 5 mM calcium chloride. After incubation at 37° C. for 16 hours, the tubes were centrifuged in a Beckman microfuge for five minutes at full speed. An aliquot (200 μl) of the supernatant, representing collagenase digestion products of the fibril, was assayed for radioactivity. The effect of the test compound on collagen degradation by collagenase was examined as follows:
Varying concentrations of the test compound (in distilled water or dimethylacetamide) were added to the assay tubes containing active collagenase (total volume 450 μl) and after 16 hours the amount of radioactivity in the supernatant was determined. Appropriate blanks and trypsin controls were run in parallel.
The activities are expressed as % inhibition (lowering) of collagenase activity, i.e., based on the 0% value for the enzyme control.

corneal ulceration = conditions: human; cited from earlier work
corneal ulcerations = conditions: alkali burned rabbit, eye; cited from earlier work
collagenase = conditions: collagenase, or a proteinase contaminant in the collagenase preparation; cited from earlier work

Compound: Cc1cc(C(=O)Nc2cc(S(=O)(=O)O)cc3cc(S(=O)(=O)O)cc(O)c23)ccc1NC(=O)Nc1ccc(C(=O)Nc2cc(S(=O)(=O)O)cc3cc(S(=O)(=O)O)cc(O)c23)cc1C [4,4'-[Ureylenebis(3-methyl-p-phenylenecarbonylimino)]bis[5-hydroxy-2,7-naphthalenedisulfonic acid]tetrasodium salt]
- inhibition at 30 µg/mL [1]: 78%

Compound: N[C@@H](CS)C(=O)O [cysteine]
- effectiveness in treatment of acute and chronic corneal ulceration (corneal ulceration): effective

Compound: O=C(Nc1cccc(C(=O)Nc2cc3c(O)cc(S(=O)(=O)O)cc3cc2S(=O)(=O)O)c1)Nc1cccc(C(=O)Nc2cc3c(O)cc(S(=O)(=O)O)cc3cc2S(=O)(=O)O)c1 [3,3'-[Ureylenebis(m-phenylenecarbonylimino)]bis[5-hydroxy-2,7-naphthalenedisulfonic acid]tetrasodium salt]
- inhibition at 30 µg/mL [1]: 41%

Compound: O=C([O-])CN(CCN(CC(=O)[O-])CC(=O)[O-])CC(=O)[O-].[Ca+2].[Ca+2] [Calcium ethylenediaminetetraacetate]
- frequency of ulceration (corneal ulcerations): reduce the frequency of ulceration

Compound: Cc1cc(-c2ccc(/N=N/c3c(S(=O)(=O)O)cc4cc(S(=O)(=O)O)cc(N)c4c3O)c(C)c2)ccc1/N=N/c1c(S(=O)(=O)O)cc2cc(S(=O)(=O)O)cc(N)c2c1O [trypan blue]
- inhibition of the activity of collagenase (collagenase): inhibiting the activity of collagenase

Compound: Cc1ccc(C(=O)Nc2ccc(S(=O)(=O)O)c3cc(S(=O)(=O)O)cc(S(=O)(=O)O)c23)cc1NC(=O)c1cccc(NC(=O)Nc2cccc(C(=O)Nc3cc(C(=O)Nc4ccc(S(=O)(=O)O)c5cc(S(=O)(=O)O)cc(S(=O)(=O)O)c45)ccc3C)c2)c1 [Suramin]
- inhibition of the activity of collagenase (collagenase): not inhibiting the action of collagenase

Compound: CC(=O)N[C@@H](CS)C(=O)O [acetylcysteine]
- frequency of ulceration (corneal ulcerations): reduce the frequency of ulceration
- effectiveness in treatment of acute and chronic corneal ulceration (corneal ulceration): effective

Results, then the molecule that gave them:

- % Inhibition of Collagenase [1]: 45%
- inhibition at 30 µg/mL [1]: 32.2%
Compound: Cc1c(NC(=O)Nc2cccc(C(=O)Nc3cc(S(=O)(=O)O)cc4cc(S(=O)(=O)O)cc(O)c34)c2C)cccc1C(=O)Nc1cc(S(=O)(=O)O)cc2cc(S(=O)(=O)O)cc(O)c12 [4,4'-[Ureylenebis(2-methyl-3,1-phenylenecarbonylimino)]bis[5-hydroxy-2,7-naphthalenedisulfonic acid]tetrasodium salt]

- % Inhibition of Collagenase [1]: 36% and 35%
- inhibition at 30 µg/mL [1]: 50%
- inhibition at 60 µg/mL ([1]; test concentration 60 μg/ml): 39%
Compound: Cc1ccc(NC(=O)Nc2ccc(C)c(C(=O)Nc3cc(S(=O)(=O)O)cc4cc(S(=O)(=O)O)cc(O)c34)c2)cc1C(=O)Nc1cc(S(=O)(=O)O)cc2cc(S(=O)(=O)O)cc(O)c12 [4,4'-[Ureylenebis(6-methyl-3,1-phenylenecarbonylimino)]bis[5-hydroxy-2,7-naphthalenedisulfonic acid]tetrasodium salt]

- inhibition at 30 µg/mL [1]: 58%
Compound: O=C(Nc1ccc(C(=O)Nc2cccc3cc(S(=O)(=O)O)cc(O)c23)c(S(=O)(=O)O)c1)Nc1ccc(C(=O)Nc2cccc3cc(S(=O)(=O)O)cc(O)c23)c(S(=O)(=O)O)c1 [5,5'-[Ureylenebis(2-sulfo-4,1-phenylenecarbonylimino)]bis[4-hydroxy-2-naphthalenesulfonic acid]tetrasodium salt]

- inhibition at 30 µg/mL [1]: 41%
Compound: O=C(Nc1cccc(C(=O)Nc2cc(S(=O)(=O)O)cc3cc(S(=O)(=O)O)cc(O)c23)c1)Nc1cccc(C(=O)Nc2cc(S(=O)(=O)O)cc3cc(S(=O)(=O)O)cc(O)c23)c1 [4,4'[Ureylenebis(m-phenylenecarbonylimino)]bis[5-hydroxy-2,7-naphthalenedisulfonic acid]tetrasodium salt]
